From paper PMC6121902, “Conjugation with Dihydrolipoic Acid Imparts Caffeic Acid Ester Potent Inhibitory Effect on Dopa Oxidase Activity of Human Tyrosinase” (International Journal of Molecular Sciences, 2018)
Several values for one entry are separate records, joined by “and”; a condition that tells them apart may be missing. Equal values may be shown once. Read-outs that look alike come from different tables or passages of the source.

How the values were obtained:
[1] = target: T1, tyrosinase from HBL human melanoma cells (Homo sapiens, UniProt P14679); experiment: DO activity of human tyrosinase in HBL cell extracts (MBTH assay, 490 nm); assay type: biochemical; settings: for Km: read-out: Km (apparent)
T1 construct: endogenous in cells; host or cells: HBL human melanoma cells (detergent-solubilized cell extract)
T1 sequence (P14679 19-529): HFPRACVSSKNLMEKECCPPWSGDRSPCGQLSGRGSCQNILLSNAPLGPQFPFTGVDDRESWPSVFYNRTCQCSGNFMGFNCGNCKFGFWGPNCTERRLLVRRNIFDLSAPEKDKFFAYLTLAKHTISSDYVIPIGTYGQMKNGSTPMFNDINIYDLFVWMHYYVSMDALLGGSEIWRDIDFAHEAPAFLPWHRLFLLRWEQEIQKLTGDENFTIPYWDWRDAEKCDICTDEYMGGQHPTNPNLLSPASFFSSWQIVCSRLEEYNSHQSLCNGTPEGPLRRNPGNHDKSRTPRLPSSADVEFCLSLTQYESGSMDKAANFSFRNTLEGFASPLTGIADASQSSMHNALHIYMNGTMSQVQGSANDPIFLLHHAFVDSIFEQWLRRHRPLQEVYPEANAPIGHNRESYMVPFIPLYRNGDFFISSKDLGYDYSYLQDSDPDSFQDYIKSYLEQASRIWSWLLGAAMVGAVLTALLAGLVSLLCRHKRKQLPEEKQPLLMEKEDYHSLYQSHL
Method: In further experiments, the effect of LCAME and LCA was investigated on extracts from HBL human melanoma cells expressing tyrosinase, and the inhibition of DO activity was evaluated. DO activity was determined according to Winder and Harris with some minor modifications: cell extracts were incubated with 3-methyl-2-benzothiazolinone hydrazone (MBTH) and absorbance at 490 nm was measured every 10 min for 1 h.
Cells were solubilized in 1% Igepal, 1% phenylmethylsulfonyl fluoride, 50 mM phosphate buffer (pH 6.8) and centrifuged at 2000 rpm for 5 min.
DO activity determinations were performed according to Winder and Harris with minor modifications. Briefly, cell extracts (usually 50–100 µg protein/assay) were incubated with 5 mM MBTH and 2.5 mM L-DOPA in 50 mM phosphate buffer pH 6.8 in the presence of the indicated concentrations of the compound of choice in a 96-wells plate. DO activity was measured spectrophotometrically in a microplate reader every ten minutes for one hour and was expressed as the slopes calculated with the GraphPad Prism 7 software (Linear Regression, San Diego, CA, USA).
For the analysis of kinetic parameters, the assays were run as above, using different concentrations of L-DOPA (from 0.1 to 2.0 mM) and of the inhibitor (0, 10 and 25 μM) to build the Lineweaver–Burk plot.

mushroom tyrosinase = experiment: Consumption of inhibitor by mushroom tyrosinase (substrate test, HPLC); assay type: biochemical; settings: 100 μM, 10 min
Method: Some tyrosinase inhibitors are also substrates of the enzyme and this is a critical issue because their oxidation can lead to the formation of highly reactive, cytotoxic o-quinones. To rule out this possibility, either LCAME or CAME at 100 μM were exposed to mushroom tyrosinase, in the absence of L-DOPA, and after 10 min, the reaction mixtures were analyzed by HPLC. […] HPLC analyses for determination of the consumption of CAME and LCAME in the presence of mushroom tyrosinase were performed on a Agilent 1100 binary pump instrument equipped with a UV-visible detector using an octadecylsilane-coated column, 250 mm × 4.6 mm, 5 μm particle size (Phenomenex Sphereclone ODS, Bologna, Italy) at 0.7 mL/min, using the following gradient: 0.1% formic acid (eluant a)/ methanol (eluant b): 40% b, 0–10 min; from 40 to 80% b, 47.5–52.5 min; from 80 to 40% b, 52.5–57.5 min. Detection wavelength was set at 280 nm. Stock methanolic solutions of LCAME or CAME, ranging in concentration from 0.02 to 20 mM concentration were prepared dissolving a proper amount of the compound of interest in methanol. 100 μL of these solutions were added to 2 mL of 50 mM phosphate buffer at pH 6.8 (final concentrations range: 0.001–1 mM), in the presence or in the absence of 20 U/mL mushroom tyrosinase. After 10 min incubation at room temperature, 20 μL of a 100 mM solution of L-DOPA or L-tyrosine in 0.6 M HCl, were added (final concentration: 1 mM). Spectrophotometric analysis was performed by measuring the absorbance at 475 nm for 10 min at 2 min intervals. In control experiments, the reaction was run in the absence of LCAME. When required, the experiment was performed as above but adding L-DOP A soon after the addition of LCAME ([…]). In separate experiments, the assay was run as above with LCAME or CAME at 100 μM, in the presence or absence of L-DOPA, and after 10 min the mixture was analyzed by HPLC.

With COC(=O)/C=C/c1ccc(O)c(O)c1SCCC(S)CCCCC(=O)O (stereo not shown) [LCAME, 2-S-lipoylcaffeic acid methyl ester] the IC50 ([1]; DO activity, HBL cell extracts, L-DOPA 2.5 mM, read-out: IC50 (Mean ± SEM)) was 30 µM and 30.1 µM, the Ki ([1]; DO activity, competitive model Km^app = Km (1 + [I]/Ki)) was 34.7 ± 1.1 µM and the “type of inhibition (Lineweaver–Burk)” value ([1]; L-DOPA 0.1 to 2.0 mM, LCAME 10 or 25 μM) was “competitive inhibition”. The Vmax ([1]; [LCAME] 10 μM) was 0.18 ± 0.02 ∆A490/min mg, the Km ([1]; [LCAME] 10 μM) was 1430 ± 300 µM and the Vmax ([1]; [LCAME] 25 μM) was 0.19 ± 0.03 ∆A490/min mg. For the same compound, the Km ([1]; [LCAME] 25 μM) was 1950 ± 500 µM, the “inhibitory effect on DO activity” value ([1]; fixed concentration of 25 μM, HBL cell extracts) was “significant inhibitory effect” and the “consumption of the inhibitor” value (mushroom tyrosinase; absence of L-DOPA) was “no significant consumption”. The “consumption of the inhibitor” value (mushroom tyrosinase; presence of L-DOPA) was “The same result”.
